# Measured values taken from PubChem BioAssay (NCI).
#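 Five compound concentrations were applied to cells in 96-well plates for 48 hours; endpoints were derived by simple linear interpolation of the resulting dose-response curve. Abbreviation: GI50, concentration required for 50% inhibition of growth. TGI marks complete inhibition of growth.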
# Legend:
# Assay in all cases: NCI-60 cell line screen, 48 h
# ACHN renal = system: ACHN renal
# COLO 205 colon = system: COLO 205 colon
# MOLT-4 leukemia = system: MOLT-4 leukemia
# NCI-H226 lung = system: NCI-H226 lung
# NCI-H460 lung = system: NCI-H460 lung
# OVCAR-3 ovarian = system: OVCAR-3 ovarian
# OVCAR-5 ovarian = system: OVCAR-5 ovarian
# SK-MEL-28 melanoma = system: SK-MEL-28 melanoma
# SN12C renal = system: SN12C renal
# TK-10 renal = system: TK-10 renal
SMILES,TGI (ACHN renal) [µM],TGI (COLO 205 colon) [µM],TGI (MOLT-4 leukemia) [µM],TGI (NCI-H226 lung) [µM],TGI (NCI-H460 lung) [µM],TGI (OVCAR-3 ovarian) [µM],TGI (OVCAR-5 ovarian) [µM],TGI (SK-MEL-28 melanoma) [µM],TGI (SN12C renal) [µM],TGI (TK-10 renal) [µM],GI50 (ACHN renal) [µM],GI50 (COLO 205 colon) [µM],GI50 (MOLT-4 leukemia) [µM],GI50 (NCI-H226 lung) [µM],GI50 (NCI-H460 lung) [µM],GI50 (OVCAR-3 ovarian) [µM],GI50 (OVCAR-5 ovarian) [µM],GI50 (SK-MEL-28 melanoma) [µM],GI50 (SN12C renal) [µM],GI50 (TK-10 renal) [µM]
c1cnc2c(c1)-n1cccc1C1(CCSCC1)NN2,> 100,> 100,> 100,> 100,> 100,> 100,> 100,> 100,> 100,> 100,–,–,–,–,–,–,–,–,–,–
CC(C)c1ccc(Cc2cnc(NC(=O)c3cc(Br)cs3)s2)cc1,> 100,15,> 100,> 100,> 100,> 100,> 100,> 100,> 100,19.4,4.64,2.92,7.59,5.68,3.3,2.75,4.95,5.41,4.21,2.72
c1ccc2c(c1)[I+]c1ccccc1-2,> 50,> 50,> 50,> 50,> 50,> 50,> 50,> 50,> 50,> 50,> 50,> 50,> 50,> 50,33.9,> 50,> 50,> 50,> 50,> 50
O=c1oc2ccccc2c(O)c1/C=N\c1nc(-c2ccccc2)cs1,24,11.5,7.03,23,> 100,30.8,35.1,31.1,23.1,7.58,–,–,–,–,–,–,–,–,–,–
CC1(C)C(=O)N(c2ccccc2)C(=O)N1c1nc2ccccc2[nH]1,> 100,> 100,> 100,> 100,> 100,> 100,> 100,> 100,> 100,> 100,–,–,–,–,–,–,–,–,–,–
Cc1cc(/C=C2\SC(=Nc3ccccc3)N(C3CCCC3)C2=O)c(C)n1-c1ccc(Cl)cc1,> 100,> 100,> 100,> 100,> 100,> 100,> 100,> 100,> 100,> 100,> 100,> 100,> 100,> 100,> 100,> 100,> 100,> 100,> 100,> 100
CC#CC(O)(C(=O)OC1CCCN(C)C1)C1=CC=CCC1 (stereo not given),> 100,> 100,> 100,> 100,> 100,> 100,> 100,> 100,> 100,> 100,–,–,–,–,–,–,–,–,–,–
NC(=O)c1c[se]c(C2OC(CO)C(O)C2O)n1 (stereo not given),> 100,> 100,> 49,> 100,> 100,> 59,> 100,> 100,> 100,> 100,–,–,–,–,–,–,–,–,–,–
Nc1c(C(=O)c2ccccc2)sc2nc(-c3cccs3)ccc12,13.3,4.65,1.12,12.5,2.56,1.05,14.5,> 100,27.4,5.79,0.863,0.426,0.0504,2.11,0.283,0.0468,1.8,1.49,0.692,0.414
Cc1nn(C(=O)c2ccccc2O)c2c1C(c1ccccc1)SC(N)=N2 (stereo not given),> 10,> 10,> 10,7.38,> 10,7.22,> 10,> 10,> 10,> 10,–,–,–,–,–,–,–,–,–,–
COc1cc2c(cc1C)NC(=O)/C2=C\c1cc(OC)c(OC)c(OC)c1,> 100,> 100,38.8,> 100,> 100,> 100,> 100,> 100,> 100,> 100,64.1,> 100,12.5,> 100,> 100,> 100,32.2,> 100,> 100,93.7
CCN(CC)CCNc1c(OC)cc(C)c2sc3ccccc3c(=O)c12,15.8,5.02,4.58,12.8,18.9,26.2,13.4,5.1,9.92,21,–,–,–,–,–,–,–,–,–,–
COc1cc([C@H](C)c2ccc3ccccc3c2)cc(OC)c1OC,> 100,0.865,> 100,> 100,18,> 100,> 100,> 100,> 100,> 100,0.857,0.306,0.504,2.94,0.332,0.272,0.997,5.25,1.08,12.2
COc1cc(-c2cnn(C)c2)ccc1Nc1ncc2ccnc(N[C@@H](C)C(C)(C)C)c2n1,> 100,> 100,> 100,> 100,> 100,> 100,> 100,> 100,> 100,> 100,4.29,1.81,> 69,> 83.3,0.819,> 89.8,97.8,> 100,> 100,> 79.9
CC(=O)O[C@H]1C(N(C)C(=O)c2ccccc2)CC[C@]2(C)C3CC[C@@]4(C)C(CC(O)[C@@H]4C(C)N(C)C)[C@@H]3CCC12 (stereo not given in full),> 100,> 100,> 100,> 100,> 100,> 100,> 100,> 100,> 100,> 100,–,–,–,–,–,–,–,–,–,–
